Test results published in US5817689A, “Indole derivatives having a 2-phenyl-ethanolamino-substituted lower alkyl group at the 2-or 3-position thereof” (priority 1994, dated 1998).
Counter-ions that a name gives are not always drawn. Like-named read-outs stand apart in the source and are kept apart here.

Tests used:
Central nervous system = details: literature compound; cited from earlier work
bacteria = details: literature compound; cited from earlier work
[1] = target: T1, human β2 -adrenergic receptor (Homo sapiens, UniProt P07550); assay: Human β2-adrenergic receptor-stimulating activity (cAMP accumulation in CHO/pKREX21-8 cells); assay type: cell-based; details: for Emax: read-out: I.A. value β2 -receptor; for I.A. value β2 -receptor: intrinsic activity: maximal cAMP response relative to 10^-5 M (-)-isoproterenol = 100%
T1 construct: expressed in transfected cells; host or cells: CHO-K1, clone CHO/pKREX21-8
T1 sequence (P07550 whole entry): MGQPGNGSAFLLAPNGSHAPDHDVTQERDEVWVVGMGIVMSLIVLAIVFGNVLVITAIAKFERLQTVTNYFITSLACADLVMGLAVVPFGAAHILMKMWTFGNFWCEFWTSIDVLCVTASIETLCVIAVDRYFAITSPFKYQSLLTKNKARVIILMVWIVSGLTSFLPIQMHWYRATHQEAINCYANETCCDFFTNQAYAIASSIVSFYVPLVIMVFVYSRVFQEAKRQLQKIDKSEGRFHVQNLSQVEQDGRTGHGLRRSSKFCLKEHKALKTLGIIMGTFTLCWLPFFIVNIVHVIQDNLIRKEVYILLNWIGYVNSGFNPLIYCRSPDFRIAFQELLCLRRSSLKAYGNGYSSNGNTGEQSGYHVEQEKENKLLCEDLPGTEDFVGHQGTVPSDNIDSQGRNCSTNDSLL
Excerpt: cDNA was synthesized with Poly(A)^+ RNA derived from human brain (Clontech: trade number; CL6516-1) by using SuperScript Systems (Life Technologies).
After the reaction mixture was digested with restriction endonucleases Sse8387I and HindIII, about 1.4 kbp fragment was isolated by electrophoresis. This fragment was ligated with expression vector pKCN1 digested with restriction endonucleases Sse8387I and HindIII, and was introduced into E. coli HB101 in a conventional manner. Plasmid DNA was prepared from the selected transformant, and the nucleotide sequence of the about 1.4 kbp fragment obtained by digestion of this plasmid DNA with restriction endonucleases Sse8387I and HindIII was determined. […] This plasmid was named as pKREX21 for highly expressing human β2 -adrenergic receptor, and was introduced into CHO-K1 in the same manner as the method of establishment of the cell line highly expressing human β3 -adrenergic receptor.
(§1) Experiment 1 Human β-adrenergic receptor-stimulating activity:
(§2) The cells were peeled off by incubation with phosphate-buffered saline containing 0.5 mM EDTA at 37° C. for 10 minutes after the medium was removed. The CHO/pKREX10-36 cells were collected by centrifugation, and suspended in Hanks' balanced salts (ICN Biomedicals) containing 1 mM L-ascorbic acid and 1 mM 3-isobutyl-1-methylxanthine at the concentration of about 2×10^6cells/ml. This suspension (100μl) and a test compound were mixed in the same balanced salt (500 μl) and incubated at 37° C. for 30 minutes, followed by boiling for 5 minutes to terminate the reaction. After centrifugation of the reaction mixture, the amount of cAMP in the supernatant was measured by using cAMP EIA System (Amersham).
Similarly, the amount of cAMP was measured by using CHO/pKREX21-8 for highly expressing human β2 -adrenergic receptor instead of the CHO/pKREX10-36 for highly expressing human β3 -adrenergic receptor.

[2] = target: T2, human β3 -adrenergic receptor (Homo sapiens, UniProt P13945); assay: Human β3-adrenergic receptor-stimulating activity (cAMP accumulation in CHO/pKREX10-36 cells); assay type: cell-based; details: for Emax: read-out: I.A. value β3 -receptor; for stimulating activity of human β3 -adrenergic receptor (in words): conclusion from Table 5; for Ratio of EC50 β2 /β3: ratio of EC50 β2-receptor to EC50 β3-receptor
T2 construct: expressed in transfected cells; host or cells: CHO-K1 (ATCC CCL 61), clone CHO/pKREX10-36
T2 sequence (P13945 whole entry): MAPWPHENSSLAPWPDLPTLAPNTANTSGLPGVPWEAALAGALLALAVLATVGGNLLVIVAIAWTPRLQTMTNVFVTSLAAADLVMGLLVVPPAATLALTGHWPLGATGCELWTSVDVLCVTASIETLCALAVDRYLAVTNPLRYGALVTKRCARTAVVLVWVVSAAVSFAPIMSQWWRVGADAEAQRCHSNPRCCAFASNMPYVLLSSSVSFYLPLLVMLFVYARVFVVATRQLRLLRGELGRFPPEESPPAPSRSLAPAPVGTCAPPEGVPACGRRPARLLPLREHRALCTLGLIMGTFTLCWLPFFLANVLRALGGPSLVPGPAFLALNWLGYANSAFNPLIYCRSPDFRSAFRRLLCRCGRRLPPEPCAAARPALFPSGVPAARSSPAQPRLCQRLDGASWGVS
Experimental: Establishment of the cell line highly expressing human β3 -adrenergic receptor
Separately, another expression vector for animal cells, pSV2-neo [Southern and Berg, J. Mol. Appl. Genet. […] These DNAs were ligated with DNA Ligation Kit (Takara Shuzo Co., Ltd.) and were introduced into E. coli HB101 in a conventional manner to give the transformants. Plasmid DNAs were prepared from the transformants and digested with a restriction endonuclease PstI. A clone which produced about 3.8 kbp, 2.2 kbp, 1.4 kbp, and 0.9 kbp fragments was selected to give a plasmid named pKCN0.
The reaction mixture was used for transformation of E. coli HB101 and plasmid DNAs were prepared from the selected transformants. The plasmid DNAs were digested with restriction endonucleases DraI and HindIII, and a clone which produced about 430 bp fragment was selected to give a plasmid named pKCN1 for expression vector.
10% Dimethyl sulfoxide was added to the reaction mixture at the PCR reaction.
After the reaction mixture was digested with restriction endonucleases Sse8387I and StuI, about 1.3 kbp fragment was isolated by electrophoresis. This fragment was ligated with expression vector pKCN1 which was digested with restriction endonucleases Sse8387I and EcoRV, and the resultant was introduced into E. coli HB101 in a conventional manner. Plasmid DNA was prepared from the selected transformant and the nucleotide sequence of the about 1.3 kbp fragment obtained by digestion of the plasmid DNA with restriction endonucleases Sse8387I and XhoI was determined. […] This plasmid for expressing human β3 -adrenergic receptor was named as pKREX10.
The reaction mixture was filtered with glass filter GF/C (Whatman) presoaked with 0.3% polyethyleneimine and washed by using BIO-DOT apparatus (Bio-Rad Laboratories), and the radioactivity on the filter was counted by γ-ray counter. […] Establishment of the cell line highly expressing human β2 -adrenergic receptor
as §1, §2

[3] = system: glucose level in the blood; assay: Blood glucose reducing activity on fasted mouse; assay type: in vivo, ddY male mouse; details: 3 h, read-out: Blood glucose reducing activity (ED25)
Experimental: Experiment 2 Blood glucose reducing activity on fasted mouse:
A test compound suspended in 0.5% tragacanth solution was orally administered to a ddY male mouse (weight: 20-30 g) under being fasted, and the blood was collected before and at three hours after the administration of the test compound. The glucose level in the blood was determined by the method of Kunst A., et al. (Hexokinase/G6PDH method) [Bergmeyer, H. U. (eds.), […], vol. VI, 3rd edition, Verlag Chemie GmbH, Weinheim·Deerfield Beach, Florida·Basel, 163-172 (1984)]. The blood glucose reducing activity of the test compound was expressed by ED25 value which is a concentration of the test compound required to reduce the glucose level in blood before the administration of the test compound by 25%. Gliclazide was used as a reference compound which is a commercially available drug for treatment of diabetes mellitus.

[4] = system: retroperitoneal (white) and interscapular (brown) adipose tissue; assay: Anti-obesity activity on diabetic obese mouse; assay type: in vivo, diabetic obese mouse (KK-Ay/Ta, Jcl. female); details: 3 mg/kg/day oral for three weeks, significantly different from control, p < 0.01
Experimental: Experiment 3 Anti-obesity activity on diabetic obese mouse:
A test compound suspended in 0.5% tragacanth solution was orally administrated to a diabetic obese mouse (KK-Ay/Ta, Jcl. female; 50-60 g, Clea Japan Inc.) at a dose of 3 mg/kg/day for three weeks, and then, the retroperitoneal adipose tissue and the interscapulal adipose tissue were taken, and the weights thereof were measured as white adipose tissue and brown adipose tissue, respectively.

[5] = 50% of cAMP accumulation, CHO/pKREX10-36, 37° C., 30 minutes, read-out: EC50 value β3 -receptor
[6] = 25% reduction of blood glucose, fasted ddY male mice, oral, three hours after administration

| SMILES | EC50 [1] [nM] | Emax [1] [%] | EC50 [2] [nM] | Emax [2] [%] | EC50 [2, 5] [nM] | ED25 ([3]; po) [mg/kg] | other results |
| --- | --- | --- | --- | --- | --- | --- | --- |
| CC(Cc1c[nH]c2ccccc12)NCC(O)c1ccc(O)c(O)c1 (centres unmarked) |  |  |  |  |  |  | Pharmacological Activity (central nervous system) (Central nervous system): Central nervous system inhibitory |
| COc1ccc(C(O)CNCCc2c[nH]c3ccccc23)cc1Br (centres unmarked) |  |  |  |  |  |  | Pharmacological Activity (antibacterial) (bacteria): Antibacterial activity |
| COc1cccc2c(CC(C)NC[C@H](O)c3cccc(Cl)c3)c[nH]c12 (single isomer, unassigned) [Example 1-A-b, 2-[(2S or 2R)-3-(7-methoxyindol-3-yl)-2-propylamino]-(1R)-1-(3-chlorophenyl)ethanol] | 3.6 | 35 | 0.36 | 89 |  |  |  |
| OC(CNCCc1c[nH]c2ccc(Cl)cc12)c1ccccc1 (centres unmarked) [Compound A, reference compound] |  | 16 |  | 92 | 910 |  | EC50 ([1]; 50% of cAMP accumulation, CHO/pKREX21-8, 37° C., 30 minutes, read-out: EC50 value β2 -receptor): 410 nM; stimulating activity of human β3 -adrenergic receptor (in words) [2]: quite weak human β3 -adrenergic receptor-stimulating activity; Ratio of EC50 β2 /β3 [2]: 0.5 |
| OC(CNCCc1c[nH]c2ccccc12)c1ccccc1 (centres unmarked) [Compound B, reference compound] |  |  |  | 100 | 180 |  | I.A. value β2 -receptor [1]: 8%; stimulating activity of human β3 -adrenergic receptor (in words) [2]: quite weak human β3 -adrenergic receptor-stimulating activity |
| O=[N+]([O-])c1cccc(C(O)CNCCc2c[nH]c3ccccc23)c1 (centres unmarked) [Compound C, reference compound] |  |  |  | 105 | 540 |  | I.A. value β2 -receptor [1]: 5%; stimulating activity of human β3 -adrenergic receptor (in words) [2]: quite weak human β3 -adrenergic receptor-stimulating activity |
| COc1cccc2c(CC(C)NCC(O)c3cccc(Cl)c3)c[nH]c12 (centres unmarked) [Example 1, 2-[3-(7-methoxyindol-3-yl)-2-propylamino]-1-(3-chlorophenyl)ethanol] | 25 | 33 |  | 113 | 1.7 | 0.05 | Weight of brown adipose tissue ([4]; control 0.460 ± 0.03): 0.289 ± 0.04 g; Weight of white adipose tissue ([4]; control 4.92 ± 0.28): 2.35 ± 0.12 g |
| CCOc1cccc2c(CC(C)NCC(O)c3cccc(Cl)c3)c[nH]c12 (centres unmarked) [Example 2, 2-[3-(7-ethoxyindol-3-yl)-2-propylamino]-1-(3-chlorophenyl)ethanol] | 55 | 31 | 2 | 117 |  | 0.03 | stimulating activity of human β3 -adrenergic receptor (in words) [2]: potent stimulating activity of human β3 -adrenergic receptor |
| CCOc1cccc2c(CC(C)NC[C@H](O)c3cccc(Cl)c3)c[nH]c12 (stereo partly drawn) [Example 2-A, 2-[3-(7-ethoxyindol-3-yl)-2-propylamino]-(1R)-1-(3-chlorophenyl)ethanol] | 15 | 23 |  | 96 | 0.96 |  |  |
| COc1ccc2c(CC(C)NCC(O)c3cccc(Cl)c3)c[nH]c2c1 (centres unmarked) [Example 3] | 170 | 22 |  | 102 | 22 | 3.3 |  |
| CC(Cc1c[nH]c2c(OCc3ccccc3)cccc12)NCC(O)c1cccc(Cl)c1 (centres unmarked) [Example 4] | 43 | 36 | 16 | 116 |  |  | Ratio of EC50 β2 /β3 [2]: 2.7 |
| Cc1ccc2c(CC(C)NCC(O)c3cccc(Cl)c3)c[nH]c2c1 (centres unmarked) [Example 5] | 33 | 41 |  | 95 | 12 | 4.5 |  |
| Cc1cccc2c(CC(C)NCC(O)c3cccc(Cl)c3)c[nH]c12 (centres unmarked) [Example 6] | 88 | 19 | 35 | 91 |  | 4.5 | Ratio of EC50 β2 /β3 [2]: 2.5 |
| COC(=O)COc1ccc2c(CC(C)NCC(O)c3cccc(Cl)c3)c[nH]c2c1 (centres unmarked) [Example 7] | 33 | 15 | 25 | 76 |  | 1.5 | Ratio of EC50 β2 /β3 [2]: 1.3 |
| COC(=O)c1ccc2c(CC(C)NCC(O)c3cccc(Cl)c3)c[nH]c2c1 (centres unmarked) [Example 8] |  |  | 31 | 92 |  | 1.4 | I.A. value β2 -receptor [1]: 5% |
| Cc1cccc2[nH]cc(CC(C)NCC(O)c3cccc(Cl)c3)c12 (centres unmarked) [Example 10] |  |  |  |  |  |  | ED25 [3, 6]: 0.1 mg/kg |
| COc1ccc2c(CC(C)NCC(O)c3cccc(Cl)c3)c[nH]c2c1OC (centres unmarked) [Example 12] | 31 | 13 | 4 | 98 |  |  | Ratio of EC50 β2 /β3 [2]: 7.8 |
| CC(Cc1c[nH]c2cc(OCC(=O)O)ccc12)NCC(O)c1cccc(Cl)c1 (centres unmarked) [Example 13, 2-[3-(6-carboxymethoxyindol-3-yl)-2-propylamino]-1-(3-chlorophenyl)ethanolsodium salt] |  |  | 31 | 101 |  |  | I.A. value β2 -receptor [1]: 6% |
| COC(=O)COc1cccc2c(CC(C)NC[C@H](O)c3cccc(Cl)c3)c[nH]c12 (stereo partly drawn) [Example 14, 2-[3-(7-methoxycarbonylmethoxyindol-3-yl)-2-propylamino]-(1R)-1-(3-chlorophenyl)ethanol] | 6 | 29 | 0.43 | 95 |  |  | stimulating activity of human β3 -adrenergic receptor (in words) [2]: potent stimulating activity of human β3 -adrenergic receptor; Ratio of EC50 β2 /β3 [2]: 14.0; adrenoceptor selectivity for human β3 -adrenergic receptor (in words) ([2]; β3 versus β2, conclusion from Table 5): excellent adrenoceptor selectivity for human β3 -adrenergic receptor |
| Cc1ccc(S(=O)(=O)NC(=O)NN2CC3CCCC3C2)cc1 (centres unmarked) [Gliclazide, reference compound] |  |  |  |  |  |  | ED25 [3, 6]: 0.87 mg/kg |
| CC(C)NC[C@H](O)c1ccc(O)c(O)c1 [IP, (-)Isoproterenol, reference compound] |  |  |  |  |  |  | I.A. value β3 -receptor ([2]; intrinsic activity: maximal cAMP response relative to 10^-5 M (-)-isoproterenol = 100%): 100% |
